Measurements as given in patent US20220055989A1, “CONDENSED PYRROLES AS NOVEL BROMODOMAIN INHIBITORS” (ALBERT LUDWING UNIVERSITÄT FREIBURG, priority 2018, published 2022).

Legend:
[1] = tested on: HL-60 cells; assay: GI50 in a culture of HL-60 cells; format: cell-based; settings: concentration required to reduce the population of a culture of HL-60 cells by 50%
[2] = target: T1, ATAD2B (Homo sapiens, UniProt Q9ULI0); assay: Bromodomain assay % Ctrl determination ATAD2B; settings: lower numbers indicate a stronger binding
T1 construct: T7 phage strains displaying bromodomains were grown in parallel; made in house; host or cells: T7 phage grown in an E. coli host derived from the BL21 strain
T1 sequence (Q9ULI0 951-1066 limits assumed): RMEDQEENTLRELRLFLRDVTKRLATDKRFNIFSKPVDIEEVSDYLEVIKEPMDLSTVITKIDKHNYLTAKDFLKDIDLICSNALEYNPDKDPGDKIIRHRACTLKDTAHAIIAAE
Protocol: (§1) Compounds that bind the bromodomain prevent its binding to the immobilized ligand thus reducing the amount of protein captured. […] Hits are identified by measuring the amount of bromodomain captured in test versus control samples. Bromodomain assays for % Ctrl determination: T7 phage strains displaying bromodomains were grown in parallel in 24-well blocks in an E. coli host derived from the BL21 strain. E. coli were grown to log-phase and infected with T7 phage from a frozen stock (multiplicity of infection=0.4) and incubated with shaking at 32° C. until lysis (90-150 minutes). The lysates were centrifuged (5,000×g) and filtered (0.2 μm) to remove cell debris. […] The liganded beads were blocked with excess biotin and washed with blocking buffer (SeaBlock (Pierce), 1% BSA, 0.05% Tween 20, 1 mM DTT) to remove unbound ligand and to reduce non-specific phage binding. […] Test compounds were prepared as 1000× stocks in 100% DMSO and subsequently diluted 1:25 in monoethylene glycol (MEG). The compounds were then diluted directly into the assays such that the final concentrations of DMSO and MEG were 0.1% and 2.4%, respectively. All reactions were performed in polypropylene 384-well plates in a final volume of 0.02 ml. […] The bromodomain concentration in the eluates was measured by qPCR. […]

[3] = target: T2, BAZ2A (Homo sapiens, UniProt Q9UIF9); assay: Bromodomain assay % Ctrl determination BAZ2A; settings: lower numbers indicate a stronger binding
T2 construct: T7 phage strains displaying bromodomains were grown in parallel; made in house; host or cells: T7 phage grown in an E. coli host derived from the BL21 strain
T2 sequence (Q9UIF9 1793-1897 limits assumed): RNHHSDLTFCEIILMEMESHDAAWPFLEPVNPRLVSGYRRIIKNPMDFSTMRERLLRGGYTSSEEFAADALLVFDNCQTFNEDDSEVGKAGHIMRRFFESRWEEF
Protocol: as §1

[4] = target: T3, BRD2(2) (Homo sapiens, UniProt P25440); assay: Bromodomain assay % Ctrl determination BRD2(2); settings: lower numbers indicate a stronger binding
T3 construct: T7 phage strains displaying bromodomains were grown in parallel; made in house; host or cells: T7 phage grown in an E. coli host derived from the BL21 strain
T3 sequence (P25440 344-453 limits assumed): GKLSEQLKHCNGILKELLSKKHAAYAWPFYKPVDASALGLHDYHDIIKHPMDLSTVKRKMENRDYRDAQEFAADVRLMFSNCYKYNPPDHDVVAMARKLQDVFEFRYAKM
Protocol: as §1

[5] = target: T4, BRD4(2) (Homo sapiens, UniProt O60885); assay: Bromodomain assay % Ctrl determination BRD4(2); settings: lower numbers indicate a stronger binding
T4 construct: T7 phage strains displaying bromodomains were grown; host or cells: T7 phage in E. coli derived from BL21
Protocol: as §1

[6] = target: T5, BRPF1 (Homo sapiens, UniProt P55201); assay: Bromodomain assay % Ctrl determination BRPF1; settings: lower numbers indicate a stronger binding
T5 construct: T7 phage strains displaying bromodomains were grown; host or cells: T7 phage in E. coli derived from BL21
T5 sequence (P55201 628-732 limits assumed): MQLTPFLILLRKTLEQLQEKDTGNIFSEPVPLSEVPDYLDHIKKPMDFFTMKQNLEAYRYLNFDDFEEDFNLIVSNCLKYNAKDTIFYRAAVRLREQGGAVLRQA
Protocol: as §1

[7] = target: T2, BAZ2A; assay: BROMOscan Kd determination BAZ2A; format: binding
Protocol: (§2) Bromodomain profiling was carried out on the basis of BROMOscan™. This platform accounted for the indirect determination of the dissociation constants between 19 bromodomains and the compound of formula (13), by binding competition against a reference immobilized ligand. Compounds that bind the bromodomain prevent its binding to the immobilized ligand thus reducing the amount of protein captured. […] Hits are identified by measuring the amount of bromodomain captured in test versus control samples. Bromodomain assays for Kd determination: T7 phage strains displaying bromodomains were grown in parallel in 24-well blocks in an E. coli host derived from the BL21 strain. E. coli were grown to log-phase and infected with T7 phage from a frozen stock (multiplicity of infection=0.4) and incubated with shaking at 32° C. until lysis (90-150 minutes). The lysates were centrifuged (5,000×g) and filtered (0.2 μm) to remove cell debris. […] Kds were determined using an 11-point 3-fold compound dilution series with one DMSO control point. […] The bromodomain concentration in the eluates was measured by qPCR. […] Most Kds were determined using a compound top concentration=10,000 nM. […] Binding Constants (Kds): Binding constants (Kds) were calculated with a standard dose-response curve using the Hill equation: The Hill Slope was set to −1. […]

[8] = target: T6, BRD8(2) (Homo sapiens, UniProt Q9H0E9); assay: BROMOscan Kd determination BRD8(2); format: binding
T6 construct: T7 phage strains displaying bromodomains were grown; host or cells: T7 phage in E. coli derived from BL21
T6 sequence (Q9H0E9 1099-1207 limits assumed): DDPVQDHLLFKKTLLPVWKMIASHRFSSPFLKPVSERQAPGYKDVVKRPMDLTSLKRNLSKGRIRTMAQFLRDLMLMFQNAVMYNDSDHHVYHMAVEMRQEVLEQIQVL
Protocol: as §2

[9] = target: T7, EP300 (Homo sapiens, UniProt Q09472); assay: BROMOscan Kd determination EP300; format: binding
T7 construct: T7 phage strains displaying bromodomains were grown; host or cells: T7 phage in E. coli derived from BL21
T7 sequence (Q09472 1049-1156 limits assumed): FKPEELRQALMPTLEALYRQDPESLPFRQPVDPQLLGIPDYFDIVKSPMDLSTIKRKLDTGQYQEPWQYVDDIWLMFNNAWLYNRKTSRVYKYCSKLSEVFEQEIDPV
Protocol: Bromodomain profiling was carried out on the basis of BROMOscan™. This platform accounted for the indirect determination of the dissociation constants between 19 bromodomains and the compound of formula (13), by binding competition against a reference immobilized ligand. Compounds that bind the bromodomain prevent its binding to the immobilized ligand thus reducing the amount of protein captured. […] Hits are identified by measuring the amount of bromodomain captured in test versus control samples. Bromodomain assays for Kd determination: T7 phage strains displaying bromodomains were grown in parallel in 24-well blocks in an E. coli host derived from the BL21 strain. E. coli were grown to log-phase and infected with T7 phage from a frozen stock (multiplicity of infection=0.4) and incubated with shaking at 32° C. until lysis (90-150 minutes). The lysates were centrifuged (5,000×g) and filtered (0.2 μm) to remove cell debris. […] The liganded beads were blocked with excess biotin and washed with blocking buffer (SeaBlock (Pierce), 1% BSA, 0.05% Tween 20, 1 mM DTT) to remove unbound ligand and to reduce non-specific phage binding. […] Test compounds were prepared as 1000× stocks in 100% DMSO. Kds were determined using an 11-point 3-fold compound dilution series with one DMSO control point. All compounds for Kd measurements are distributed by acoustic transfer (non-contact dispensing) in 100% DMSO. The compounds were then diluted directly into the assays such that the final concentration of DMSO was 0.09%. All reactions performed in polypropylene 384-well plates. Each was a final volume of 0.02 ml. […] The bromodomain concentration in the eluates was measured by qPCR. […] All compounds for Kd measurements are distributed by acoustic transfer (non-contact dispensing) in 100% DMSO. The compounds were then diluted directly into the assays such that the final concentration of DMSO was 0.09%. Most Kds were determined using a compound top concentration=10,000 nM. If the initial Kd determined was <0.169 nM (the lowest concentration tested), the measurement was repeated with a serial dilution starting at a lower top concentration. Binding Constants (Kds): Binding constants (Kds) were calculated with a standard dose-response curve using the Hill equation: The Hill Slope was set to −1. Curves were fitted using a non-linear least square fit with the Levenberg-Marquardt algorithm.

[10] = target: T8, TAF1(2) (Homo sapiens, UniProt P21675); assay: BROMOscan Kd determination TAF1(2); format: binding
T8 construct: FALZ, PBRM1-BD2, BPRM1-BDS, TAF1-BD2, TAF1L-BD2; host or cells: T7 phage grown in E. coli host derived from BL21
T8 sequence (P21675 1519-1628 limits assumed): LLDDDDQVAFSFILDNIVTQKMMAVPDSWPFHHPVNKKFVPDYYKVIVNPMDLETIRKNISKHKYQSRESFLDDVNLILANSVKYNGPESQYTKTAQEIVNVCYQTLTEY
Protocol: as §2

[11] = target: T9, WRD9(2) (Homo sapiens, UniProt Q9NSI6); assay: BROMOscan Kd determination WRD9(2); format: binding
T9 construct: T7 phage strains displaying bromodomains were grown in parallel; host or cells: T7 phage grown in E. coli host derived from BL21
T9 sequence (Q9NSI6 1313-1418 limits assumed): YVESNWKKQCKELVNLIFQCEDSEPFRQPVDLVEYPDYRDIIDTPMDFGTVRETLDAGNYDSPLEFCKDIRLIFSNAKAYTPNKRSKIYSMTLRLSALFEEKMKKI
Protocol: as §2

GI50HL60 [1] [nM] | % Ctrl @ 10 000 nM ATAD2B [2] [% Ctrl] | % Ctrl @ 10 000 nM BAZ2A [3] [% Ctrl] | % Ctrl @ 10 000 nM BRD2(2) [4] [% Ctrl] | % Ctrl @ 10 000 nM BRD4(2) [5] [% Ctrl] | % Ctrl @ 10 000 nM BRPF1 [6] [% Ctrl] | Kd [7] [nM] | Kd [8] [nM] | Kd [9] [nM] | Kd [10] [nM] | Kd [11] [nM] | SMILES
170 | 97 | 24 | 0.1 | 0 | 0.15 | – | – | – | – | – | COc1ccc(S(=O)(=O)N2CCOCC2)cc1NC(=O)c1[nH]c(C)c2c1CCCCC2=O [Compound 13, N-(2-methoxy-5-(morpholinosulfonyl)phenyl)-3-methyl-4-oxo-2,4,5,6,7,8-hexahydrocyclohepta[c]pyrrole-1-carboxamide]
– | – | – | – | – | – | 1900 | > 10000 | 1200 | 4100 | > 10000 | Cc1[nH]c(-c2cc(N)ccc2Cl)c2c1C(=O)CCCC2 [Compound 23]
